In ChEMBL document CHEMBL1201862, “PubChem BioAssay data set” (2004):
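Briefly, cells in 96-well plates were exposed to five compound concentrations for 48 h, and endpoints were estimated by linear interpolation. GI50: concentration for 50% inhibition of growth.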 Activity calls are given as the source filed them. Rule as the data show it: active = GI50 up to about 1.1 µM and inactive = higher.

Columns and labels:
Experiment in all cases: growth of human tumour cells (NCI), 48 h
OVCAR-8 = tested on: OVCAR-8
LOX IMVI = tested on: LOX IMVI
NCI-H226 = tested on: NCI-H226
KM12 = tested on: KM12
SK-MEL-5 = tested on: SK-MEL-5
HL-60 = tested on: HL-60
U-251 = tested on: U-251
SNB-19 = tested on: SNB-19
SF-295 = tested on: SF-295
SN12C = tested on: SN12C
RPMI-8226 = tested on: RPMI-8226
HCT-116 = tested on: HCT-116
IGROV-1 = tested on: IGROV-1
SW-620 = tested on: SW-620
EKVX = tested on: EKVX
OVCAR-5 = tested on: OVCAR-5
COLO 205 = tested on: COLO 205
SK-OV-3 = tested on: SK-OV-3
NCI-H522 = tested on: NCI-H522
HCC 2998 = tested on: HCC 2998

SMILES | GI50 (OVCAR-8) | GI50 (LOX IMVI) | GI50 (NCI-H226) | GI50 (KM12) | GI50 (SK-MEL-5) | GI50 (HL-60) | GI50 (U-251) | GI50 (SNB-19) | GI50 (SF-295) | GI50 (SN12C) | GI50 (RPMI-8226) | GI50 (HCT-116) | GI50 (IGROV-1) | GI50 (SW-620) | GI50 (EKVX) | GI50 (OVCAR-5) | GI50 (COLO 205) | GI50 (SK-OV-3) | GI50 (NCI-H522) | GI50 (HCC 2998)
ClCCN1CCOC1=C1C=CC=C1 | > 100 µM (inactive) | > 100 µM (inactive) | > 100 µM (inactive) | 18.4 µM (inactive) | > 100 µM (inactive) | 96.6 µM (inactive) | > 100 µM (inactive) | > 100 µM (inactive) | > 100 µM (inactive) | > 100 µM (inactive) | > 100 µM (inactive) | > 100 µM (inactive) | 14 µM (inactive) | > 100 µM (inactive) | > 100 µM (inactive) | > 100 µM (inactive) | > 100 µM (inactive) | > 100 µM (inactive) | – | –
CCOC(=O)CC1=N/C(=N/C(=N)N[N+](=O)[O-])SC1 | > 100 µM (inactive) | > 100 µM (inactive) | > 100 µM (inactive) | > 100 µM (inactive) | > 100 µM (inactive) | > 100 µM (inactive) | > 100 µM (inactive) | > 100 µM (inactive) | > 100 µM (inactive) | > 100 µM (inactive) | – | > 100 µM (inactive) | > 100 µM (inactive) | > 100 µM (inactive) | > 100 µM (inactive) | > 100 µM (inactive) | > 100 µM (inactive) | > 100 µM (inactive) | > 100 µM (inactive) | > 100 µM (inactive)
O=C1CN(c2cccc(C(F)(F)F)c2)C(=O)CN1CCN1CC(=O)N(c2cccc(C(F)(F)F)c2)CC1=O | > 100 µM (inactive) | – | – | > 100 µM (inactive) | > 100 µM (inactive) | > 100 µM (inactive) | > 100 µM (inactive) | > 100 µM (inactive) | > 100 µM (inactive) | > 100 µM (inactive) | > 100 µM (inactive) | > 100 µM (inactive) | > 100 µM (inactive) | > 100 µM (inactive) | > 100 µM (inactive) | > 100 µM (inactive) | > 100 µM (inactive) | > 100 µM (inactive) | > 100 µM (inactive) | > 100 µM (inactive)
CO/N=C(\C)c1ccc(Nc2nc3ccccc3c3occc23)cc1 | 16.7 µM (inactive) | 15.3 µM (inactive) | 8.18 µM (inactive) | 17.6 µM (inactive) | 15.8 µM (inactive) | 26.5 µM (inactive) | 16.9 µM (inactive) | 15.5 µM (inactive) | 16.7 µM (inactive) | 15.2 µM (inactive) | 16.9 µM (inactive) | 14.3 µM (inactive) | 16.1 µM (inactive) | – | 14 µM (inactive) | 16.3 µM (inactive) | 14.5 µM (inactive) | 15.9 µM (inactive) | 10.8 µM (inactive) | 16.1 µM (inactive)
Cc1ccc(C(=O)N/N=C(\N=N\c2ccc([N+](=O)[O-])cc2)c2ccc(N(CCC#N)CCC#N)cc2C)cc1 | 28.1 µM (inactive) | 60.8 µM (inactive) | 31.3 µM (inactive) | 39.5 µM (inactive) | 75.3 µM (inactive) | 30.2 µM (inactive) | > 100 µM (inactive) | > 100 µM (inactive) | 57.9 µM (inactive) | > 100 µM (inactive) | > 100 µM (inactive) | 54.8 µM (inactive) | 66.8 µM (inactive) | > 100 µM (inactive) | > 100 µM (inactive) | > 100 µM (inactive) | 50 µM (inactive) | > 100 µM (inactive) | – | 54.1 µM (inactive)
COC1/C=C/C=C(/C)Cc2cc(O)c(Cl)c(c2)N(C)C(=O)CC(OC(=O)C(C)C)C2(C)OC2C(C)C2CC1(O)NC(=O)O2 (stereo unspecified) | < 0.01 µM (active) | < 0.01 µM (active) | > 100 µM (inactive) | < 0.01 µM (active) | < 0.01 µM (active) | < 0.01 µM (active) | < 0.01 µM (active) | < 0.01 µM (active) | < 0.01 µM (active) | < 0.01 µM (active) | < 0.01 µM (active) | < 0.01 µM (active) | < 0.01 µM (active) | < 0.01 µM (active) | – | – | < 0.01 µM (active) | < 0.01 µM (active) | < 0.01 µM (active) | < 0.01 µM (active)
CCOC(=O)c1ccc(Nc2cnc3cc(C(F)(F)F)ccc3n2)cc1 | > 100 µM (inactive) | > 100 µM (inactive) | > 100 µM (inactive) | 85.1 µM (inactive) | > 100 µM (inactive) | > 100 µM (inactive) | > 100 µM (inactive) | – | > 100 µM (inactive) | > 100 µM (inactive) | > 100 µM (inactive) | 63 µM (inactive) | > 100 µM (inactive) | > 100 µM (inactive) | > 100 µM (inactive) | > 100 µM (inactive) | > 100 µM (inactive) | > 100 µM (inactive) | > 100 µM (inactive) | > 100 µM (inactive)
BrC1=CN2C[n+]3cc(Br)c4ccccc4c3N=C2c2ccccc21 | 16.7 µM (inactive) | 12.4 µM (inactive) | – | 3.65 µM (inactive) | 3.34 µM (inactive) | 22.5 µM (inactive) | 4.54 µM (inactive) | 6.67 µM (inactive) | 8.59 µM (inactive) | 19.7 µM (inactive) | 10.8 µM (inactive) | – | 7.05 µM (inactive) | 12.3 µM (inactive) | – | 17.9 µM (inactive) | 10.3 µM (inactive) | 22 µM (inactive) | 12.3 µM (inactive) | –
